Experimental data taken from patent US12384817B2, “Peptide having protective activity against cell damage caused by particulate matter, and uses for same” (CAREGEN CO., LTD., priority 2020, dated 2025).
No end group written: not given here.

Key:
cytochrome P450 [1] = assay: Cytochrome P450 activity in particulate matter-treated A549 cells (P450-Glo Assay); format: cell-based; conditions: A549 human alveolar epithelial cells; peptide pretreatment 1 hour at 20, 100, 200 μM; then 50 μg/cm^2 urban particulate matter 24 hours; FIG. 4
Description: In addition, in order to confirm whether the peptide can suppress respiratory damage caused by particulate matter, an experiment for measuring the activity of cytochrome P450 was also performed on A549 cells, which are human alveolar epithelial cells.
First, human alveolar epithelial cells, A549 cells were seeded into a 96-well plate at a density of 1.2×10^4 cells/well. After overnight incubation, the media were replaced with serum-free media. The alveolar epithelial cells, A549 cells were pretreated with the synthesized peptides for 1 hour at each concentration (20 μM, 100 μM, and 200 μM). Then, the cells were treated with 50 μg/cm^2 of urban particulate matter (Sigma, NIST1648A) for 24 hours. After the treated cells were collected, the activity of cytochrome P450 was measured using P450-Glo™ Assay kit (Promega).

cytochrome P450 [2] = assay: Cytochrome P450 activity in particulate matter-treated HaCaT cells (P450-Glo Assay); format: cell-based; conditions: HaCaT human keratinocytes; peptide pretreatment 1 hour at 20, 100, 200 μM; then 50 μg/cm^2 urban particulate matter 24 hours; FIG. 3
Source text: When polyaromatic hydrocarbons (PAHs) present in particulate matter penetrate into cells and bind to AHR, it promotes nuclear translocation of AHR. It is known that the AHR translocated into the nucleus forms a complex AHR/ARNT with an AHR nuclear translocator (ARNT), and this complex act as a transcription factor to promote the expression of cytochrome P450 (CYPs). In order to confirm the effect of the synthesized peptide in inhibiting cell damage caused by particulate matter, an experiment was performed for confirming whether the peptide inhibits the activity of cytochrome P450 after the cells were treated with particulate matter.
First, HaCaT cells, which are human keratinocytes, were seeded into a 96-well plate at a density of 1×10^4 cells/well. After overnight incubation, the media were replaced with serum-free media. The keratinocytes, HaCaT were pretreated with the synthesized peptides for 1 hour at each concentration (20 μM, 100 μM, and 200 μM). Then, the cells were treated with 50 μg/cm^2 of urban particulate matter (Sigma, NIST1648A) for 24 hours. After the keratinocytes were collected, the activity of cytochrome P450 was measured using P450-Glo™ Assay kit (Promega).

In the case of SSNAEVLALF [SEQ ID NO: 1, SSNAEVLALF], the “activity of cytochrome P450 increased by the treatment of particulate matter” value (cytochrome P450 [1]) is reported as “reduced in a concentration dependent manner” and the “activity of cytochrome P450 increased by the treatment of particulate matter” value (cytochrome P450 [2]) is reported as “reduced in a concentration dependent manner”.
